This passage reports IC50 and Kd results from paper PMC3759162 (Cellular and molecular life sciences : CMLS, 2012).

For assay [1], the target named is T1, NSBP-1 (D2096.8; nematode sterol-binding protein 1) (Caenorhabditis elegans, UniProt Q19007).
T1 sequence (Q19007 1-316): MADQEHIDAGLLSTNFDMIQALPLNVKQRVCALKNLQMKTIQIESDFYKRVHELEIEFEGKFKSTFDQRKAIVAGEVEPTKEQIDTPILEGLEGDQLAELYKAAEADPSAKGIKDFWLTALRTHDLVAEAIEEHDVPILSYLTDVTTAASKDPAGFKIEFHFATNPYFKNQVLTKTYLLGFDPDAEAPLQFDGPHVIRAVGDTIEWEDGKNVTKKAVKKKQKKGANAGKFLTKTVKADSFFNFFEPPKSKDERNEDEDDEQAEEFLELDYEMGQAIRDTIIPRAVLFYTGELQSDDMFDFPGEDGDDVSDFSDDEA
Briefly: competition with […] [3H]cholesterol on GST fusion protein.

Assay [2] has as its target T1, NSBP-1 (D2096.8; nematode sterol-binding protein 1).

`C[C@H](CCCC(C)(C)O)[C@H]1CC[C@H]2[C@@H]3CC=C4C[C@@H](O)CC[C@]4(C)[C@H]3CC[C@]12C` [25-hydroxycholesterol]: the IC50 in assay [1] is approximately 630 nM.

`CC(C)CCC[C@@H](C)[C@H]1CC[C@H]2[C@@H]3CC=C4C[C@@H](O)CC[C@]4(C)[C@H]3CC[C@]12C` [cholesterol] yielded an IC50 in assay [1] of 40 ± 5.6 nM. Binding in assay [2] was characterised by a dissociation constant (Kd) of 87.5 ± 27.7 nM.
